# Results from the supplement of paper PMC4862054.
# Tests used:
# Settings in all cases: 72 h
# BT-474 [1] = test system: BT-474
# Outline: (§1)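 Two sequential readouts followed a 72 h incubation of breast cancer cell lines with compound at 5 concentrations in 10-fold steps over a compound-specific 10,000-fold range: CellTox Green fluorescence (485/520 nm) for cell death, then CellTiter-Glo luminescence, after 10 min at room temperature, for viability. Each plate was normalised to 0.1 % DMSO and a positive kill control. Dose-response curves were fitted for EC50, censored at the top concentration.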
# BT-549 [2] = test system: BT-549
# Outline: as §1
# CAL-120 [3] = test system: CAL-120
# Outline: as §1
# CAL-148 [4] = test system: CAL-148
# Outline: as §1
# CAL-51 [5] = test system: CAL-51
# Outline: as §1
# CAL-85-1 [6] = test system: CAL-85-1
# Outline: as §1
# DU-4475 [7] = test system: DU-4475
# Outline: as §1
# HCC1143 [8] = test system: HCC1143
# Outline: as §1
# HCC1599 [9] = test system: HCC1599
# Outline: as §1
# HCC1937 [10] = test system: HCC1937
# Outline: as §1
# HDQ-P1 [11] = test system: HDQ-P1
# Outline: as §1
# Hs578T [12] = test system: Hs578T
# Outline: as §1
# MCF-10A [13] = test system: MCF-10A
# Outline: as §1
# MDA-MB-231 [14] = test system: MDA-MB-231
# Outline: as §1
# MDA-MB-436 [15] = test system: MDA-MB-436
# Outline: as §1
# MDA-MB-453 [16] = test system: MDA-MB-453
# Outline: as §1
# MDA-MB-468 [17] = test system: MDA-MB-468
# Outline: as §1
# MFM-223 [18] = test system: MFM-223
# Outline: as §1
# SK-BR-3 [19] = test system: SK-BR-3
# Outline: as §1
# CAL-148 [20] = test system: CAL-148; remark: listed apart in the source
# Outline: (§2)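 The reported EC50 was fitted from percent-inhibition dose-response curves and censored at the highest concentration. Breast cancer cell lines (20 µl suspension) were added to 384-well plates containing compound in 5 µl medium and incubated 72 h, and viability was read with 2.5 µl CellTiter-Blue over 2 h at 37 °C at 560/590 nm. Each plate was normalised to vehicle and a positive kill control and checked by Z'-factor, and rows with zero drug sensitivity score were dropped.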
# CAL-51 [21] = test system: CAL-51; remark: listed apart in the source
# Outline: as §2
# CAL-85-1 [22] = test system: CAL-85-1; remark: listed apart in the source
# Outline: as §2
# DU-4475 [23] = test system: DU-4475; remark: listed apart in the source
# Outline: as §2
# HDQ-P1 [24] = test system: HDQ-P1; remark: listed apart in the source
# Outline: as §2
# MDA-MB-453 [25] = test system: MDA-MB-453; remark: listed apart in the source
# Outline: as §2
# BT-474 [26] = test system: BT-474; remark: listed apart in the source
# Outline: as §2
# BT-549 [27] = test system: BT-549; remark: listed apart in the source
# Outline: as §2
# CAL-120 [28] = test system: CAL-120; remark: listed apart in the source
# Outline: as §2
# HCC1143 [29] = test system: HCC1143; remark: listed apart in the source
# Outline: as §2
# HCC1599 [30] = test system: HCC1599; remark: listed apart in the source
# Outline: as §2
# HCC1937 [31] = test system: HCC1937; remark: listed apart in the source
# Outline: as §2
# Hs578T [32] = test system: Hs578T; remark: listed apart in the source
# Outline: as §2
# MDA-MB-231 [33] = test system: MDA-MB-231; remark: listed apart in the source
# Outline: as §2
# MDA-MB-436 [34] = test system: MDA-MB-436; remark: listed apart in the source
# Outline: as §2
# MDA-MB-468 [35] = test system: MDA-MB-468; remark: listed apart in the source
# Outline: as §2
# MFM-223 [36] = test system: MFM-223; remark: listed apart in the source
# Outline: as §2
# SK-BR-3 [37] = test system: SK-BR-3; remark: listed apart in the source
# Outline: as §2
# CAL-51 [38] = test system: CAL-51; remark: listed apart in the source
# Procedure: (§3)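 Drug sensitivity and resistance testing (DSRT) of breast cancer cell lines in 384-well plates, 5 concentrations in 10-fold dilutions over a compound-specific 10,000-fold range. After 72 h, cytotoxicity was read by CellTox Green fluorescence and viability by CellTiter-Glo luminescence (multiplexed), normalised to DMSO and benzethonium chloride controls. EC50 is the inflection point of the fitted dose-response curve (bottom asymptote free, so it can be relative for partial curves) and is censored at the highest tested concentration. Rows with DSS 0 (no meaningful response) were excluded.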
# CAL-85-1 [39] = test system: CAL-85-1; remark: listed apart in the source
# Procedure: as §3
# Hs578T [40] = test system: Hs578T; remark: listed apart in the source
# Procedure: as §3
# MCF-10A [41] = test system: MCF-10A; remark: listed apart in the source
# Procedure: as §3
# MDA-MB-453 [42] = test system: MDA-MB-453; remark: listed apart in the source
# Procedure: as §3
# MDA-MB-468 [43] = test system: MDA-MB-468; remark: listed apart in the source
# Procedure: as §3
smiles,measurement,setting,value
CO[C@H](C(=O)[C@@H](O)[C@@H](C)O)[C@@H]1Cc2cc3cc(O[C@H]4C[C@@H](O[C@@H]5C[C@@H](O)[C@H](O)[C@@H](C)O5)[C@H](O)[C@@H](C)O4)c(C)c(O)c3c(O)c2C(=O)[C@H]1O[C@H]1C[C@@H](O[C@@H]2C[C@@H](O)[C@@H](O[C@@H]3C[C@](C)(O)[C@H](O)[C@@H](C)O3)[C@@H](C)O2)[C@H](O)[C@@H](C)O1 [Plicamycin],"EC50, CellTiter-Glo",BT-474 [1],2.44 µM
same,"EC50, CellTiter-Glo",BT-549 [2],2.34 µM
same,"EC50, CellTiter-Glo",CAL-120 [3],6.76 µM
same,"EC50, CellTiter-Glo",CAL-148 [4],4 µM
same,"EC50, CellTiter-Glo",CAL-51 [5],0.24 µM
same,"EC50, CellTiter-Glo",CAL-85-1 [6],4.27 µM
same,"EC50, CellTiter-Glo",DU-4475 [7],3.22 µM
same,"EC50, CellTiter-Glo",HCC1143 [8],3.91 µM
same,"EC50, CellTiter-Glo",HCC1599 [9],4.45 µM
same,"EC50, CellTiter-Glo",HCC1937 [10],4.19 µM
same,"EC50, CellTiter-Glo",HDQ-P1 [11],5.65 µM
same,"EC50, CellTiter-Glo",Hs578T [12],4.22 µM
same,"EC50, CellTiter-Glo",MCF-10A [13],4.12 µM
same,"EC50, CellTiter-Glo",MDA-MB-231 [14],3.02 µM
same,"EC50, CellTiter-Glo",MDA-MB-436 [15],6.15 µM
same,"EC50, CellTiter-Glo",MDA-MB-453 [16],5.31 µM
same,"EC50, CellTiter-Glo",MDA-MB-468 [17],2.51 µM
same,"EC50, CellTiter-Glo",MFM-223 [18],7.03 µM
same,"EC50, CellTiter-Glo",SK-BR-3 [19],4.53 µM
same,"EC50, CellTiter-Blue viability",CAL-148 [20],0.0736 µM
same,"EC50, CellTiter-Blue viability",CAL-51 [21],0.124 µM
same,"EC50, CellTiter-Blue viability",CAL-85-1 [22],0.0837 µM
same,"EC50, CellTiter-Blue viability",DU-4475 [23],0.0488 µM
same,"EC50, CellTiter-Blue viability",HDQ-P1 [24],0.0845 µM
same,"EC50, CellTiter-Blue viability",MDA-MB-453 [25],0.082 µM
same,"EC50, CellTiter-Blue viability",BT-474 [26],0.123 µM
same,"EC50, CellTiter-Blue viability",BT-549 [27],0.0336 µM
same,"EC50, CellTiter-Blue viability",CAL-120 [28],0.0471 µM
same,"EC50, CellTiter-Blue viability",HCC1143 [29],0.0269 µM
same,"EC50, CellTiter-Blue viability",HCC1599 [30],0.105 µM
same,"EC50, CellTiter-Blue viability",HCC1937 [31],0.0372 µM
same,"EC50, CellTiter-Blue viability",Hs578T [32],0.0308 µM
same,"EC50, CellTiter-Blue viability",MDA-MB-231 [33],0.0416 µM
same,"EC50, CellTiter-Blue viability",MDA-MB-436 [34],0.0255 µM
same,"EC50, CellTiter-Blue viability",MDA-MB-468 [35],0.0281 µM
same,"EC50, CellTiter-Blue viability",MFM-223 [36],0.168 µM
same,"EC50, CellTiter-Blue viability",SK-BR-3 [37],0.0498 µM
same,"EC50, CellTox Green",CAL-51 [38],2.12 µM
same,"EC50, CellTox Green",CAL-85-1 [39],8.29 µM
same,"EC50, CellTox Green",Hs578T [40],6.42 µM
same,"EC50, CellTox Green",MCF-10A [41],2.85 µM
same,"EC50, CellTox Green",MDA-MB-453 [42],7.42 µM
same,"EC50, CellTox Green",MDA-MB-468 [43],0.39 µM
